The subject of test [1] is PMA-stimulated PMNs. Kind of test: Nuclear decondensation (nuclear area) assay. It counts as cell-based, human. The settings on record: CRISPP 1 nM, SCR 1 nM, Sivelestat 200 nM; PMA 20 nM, 2 hours; vs PMA alone. On the procedure:
Using techniques modified from Papayannopoulos et al., J Cell Biol, 2010, 191: 677-691, nuclear area assays were used for PMA-stimulated PMNs as a surrogate for NET formation. PMNs were stimulated with PMA (20 nM) for 2 hours and then visualized via live cell imaging with a cell permeable DNA dye. Images from 5 randomly selected high power fields were captured and the nuclear area of all PMNs on each visual field was quantitated using IMAGEJ software. Nuclear areas were compared for PMNs stimulated with PMA with PMNs pre-incubated with CRISPP (1 nM), SCR (1 nM), or the NE inhibitor Sivelestat (200 nM). […] Next, immunocytochemical experiments designed to see whether CRISPP is taken up by human PMNs were performed. The CRISPP-F and SCR-F peptides and FLAG-tag specific primary antibodies were used to assess cellular location. […] CRISPP can inhibit nuclear chromatin decondensation, which is consistent with the selective inhibition of NET formation by CRISPP and nNIF. This process may involve inhibition of NE activity.
PMNs were isolated and resuspended to 2×10^6 cells/mL in M-199 media. […] 5 randomly selected high power visual fields per sample were captured via confocal microscopy and analyzed for nuclear area using the cell-permeable, fluorescent DNA dye SYTO Green. The nuclear pixel areas of >100 individual cells per high power field were determined using IMAGE-J software (NIH).

Test [2] relates to NET formation. Kind of test: NET formation inhibition (test not described). The following applies: no test described.
Test [3] concerns LPS-stimulated PMNs. Kind of test: NET formation by LPS-stimulated adult human PMNs (live cell imaging, histone H3 release). It counts as cell-based. The following applies: LPS 100 ng/mL; for NET formation by LPS-stimulated PMNs: healthy adult PMNs, peptide/protein pre-incubation 1 hour (1 nM where stated).
In test [4] the test system is human PMNs stimulated with phorbol 12-myristate acetate (PMA). The settings on record: background statement; cited from earlier work.
Test [5] concerns PMA-stimulated adult PMNs. Kind of test: NET formation by PMA-stimulated adult human PMNs. The settings on record: pre-incubation 1 nM, 1 hour; PMA 20 nM. In kind it is cell-based.
The test system of test [6] is Outbred Swiss-Webster mice, E. coli peritonitis. Kind of test: Murine E. coli peritonitis: peritoneal fluid and membrane analysis. In kind it is in vivo, mouse. On the procedure:
Outbred Swiss-Webster mice were injected intraperitoneally with 4.5×10^7 colony-forming units (cfu) of E. coli±nNIF, CRISPP, or scrambled control peptide (SCR) (10 mg/kg, IP injection) one hour prior to E. coli infection. At the 3 hour time point after infection, 3 mice were sacrificed and the peritoneal fluid and peritoneal tissue were collected and analyzed for leukocyte accumulation, bacteriology, and in vivo NET formation. […] See Fuchs et al., J Cell Biol, 2007, 176: 231-241. The number of E. coli cfu/mL of peritoneal fluid in CRISPP pretreated mice was also determined compared to SCR mice (see FIG. 17C).
Animals were treated with CRISPP (10 mg/kg), nNIF (10 mg/kg), or SCR (10 mg/kg) by i.p. injection 1 hour prior to infection (E. coli, 4.5×10^7 cfu/mouse, i.p. injection) or stimulation (LPS, 25 mg/kg, i.p. injection (SIGMA)). Control mice were injected with saline alone. The mice were sacrificed in a CO2 chamber 3 hours post-infection/stimulation with the peritoneal contents harvested and analyzed. Briefly, the skin of the abdomen was cut open in the midline after thorough disinfection and without injuring the muscle. The peritoneal cavity was lavaged with sterile saline solution ([…]) and analyzed for in vivo NET formation, bacteriology, and leukocyte accumulation. NETs in the peritoneal fluid were qualitatively and quantitatively analyzed using live cell imaging with confocal microscopy and histone release assays. NETs on the inner surface of the peritoneal membrane were assessed quantitatively using live cell imaging followed by standardized grid analysis of 5 randomly selected high power visual fields per tissue sample (IMAGE-J software, NIH). Peritoneal bacterial colony forming units (cfu) counts were quantified by permeabilizing all recovered leukocytes with 0.1% Triton-X 100 for 10 minutes and performing serial dilutions and bacterial cultures on 5% sheep blood agar plates (HARDY DIAGNOSTICS). After a 24-hour incubation, bacterial counts were determined. Total leukocyte counts in the peritoneal lavage were determined in Neubauer chambers using an optical microscope after dilution in Turk's solution (2% acetic acid). Differential leukocyte analysis was performed using a 60× oil immersion objective to assess morphology of cyto-centrifuged cells stained with May-Grunwald-Giemsa dye.

For test [7], the system named is PMNs isolated from healthy adult donors. Kind of test: PMN chemotaxis, modified Boyden Chamber assay. In kind it is cell-based, human. The following applies: 1 nM, one hour pre-incubation; IL-8 2 ng/mL. On the procedure:
Chemotaxis by PMNs isolated from healthy adult donors was assessed using a modified Boyden Chamber assay±a one hour pre-incubation […] (1 nM), or SCR (1 nM). Recombinant human IL-8 (2 ng/mL) was used as the chemoattractant. Chemotaxis through a 5 micron filter was determined by counting PMNs in 10 randomly selected high-power fields as previously described in Hill et al., Lancet, 1974, 2: 617-619. In separate experiments, […], or SCR (all at 1 nM) were evaluated for chemoattractant activity using the same system.

Test [8] shares this test system. Kind of test: PMN phagocytosis of E. coli BIOPARTICLES
It counts as cell-based, human. The settings on record: 1 nM, 60 minutes pre-incubation, 4 hours. On the procedure:
PMNs were isolated from blood of healthy adult donors and resuspended in M-199 at a concentration of 2×10^6 cells/mL. Leukocytes were pre-incubated for 60 minutes under standard conditions with cytochalasin B and […] (1 nM), or SCR (1 nM). Following pre-incubation, PMNs were incubated with 6×10^6 E. coli BIOPARTICLES (E-13231, MOLECULAR PROBES) on a rotator for 4 hours under standard conditions. The PMNs were then washed and resuspended in the starting volume in M-199 before being spun down onto glass coverslips and fixed with 2% paraformaldehyde for 10 minutes and permeabilized with 0.1% Triton-X-100 for 10 minutes. Leukocytes were stained with WGA 555 (INVITROGEN) and TO[…] (MOLECULAR PROBES) and randomly selected high power visual field images were captured using confocal microscopy. IMAGE-J software (NIH) was used to determine the percentage of PMNs that were positive for fluorescently labeled E. coli BIOPARTICLES detected at 488 nm.

Test [9] relates to LPS-stimulated human PMNs. Kind of test: Reactive oxygen species generation, dihydrorhodamine assay. It counts as cell-based. The settings on record: 1 nM, 1 hour pre-incubation; LPS 100 ng/mL. On the procedure: Human PMNs isolated from healthy adult whole blood were resuspended to a concentration of 2×10^6 cells/mL in M-199 media and pre-incubated±[…] (1 nM) or SCR (1 nM) peptide for 1 hour under standard conditions. The PMNs were then stimulated with LPS (100 ng/mL) for 1 hour, washed, and resuspended with a dihydrorhodamine (7.25 mM; D-632, MOLECULAR PROBES) and catalase (1000 Units/mL; C-40, SIGMA) mixture and incubated at 37° C. for 10 minutes. After incubation, samples were placed at 4° C. and analyzed for ROS-dependent fluorescence using a BECTON-DICKINSON FACSCAN device equipped with CELLQUEST software.

Where [10] appears, read: 10 mg/kg IP pretreatment, vs SCR control.

In the case of `CC(C)(C)C(=O)Oc1ccc(S(=O)(=O)Nc2ccccc2C(=O)NCC(=O)O)cc1` [Sivelestat, reference compound], in [1], the “Nuclear area of PMA-stimulated PMNs” value was “significant decrease in nuclear area”.

Take “A1ATm^358: cleavage fragment of full length A1AT (SEQ ID NO:3), an nNIF-related peptide (PMSIPPEVKFNKPFVFLMIEQNTKSPLFMGKVVNPTQK; homo sapiens)”: the NET formation entry in test [2] is reported as “inhibit NET formation”.

Consider alpha 1-antitrypsin [A1AT], for which the “NET formation by LPS-stimulated PMNs” value in [3] is recorded as “failed to inhibit NET formation”. The “NET formation by LPS-stimulated PMNs, recombinant AAT in nNIF-depleted cord blood plasma” value in [3] (rAAT (1 nM) added to nNIF-depleted cord blood plasma, listed as recombinant full length A1AT) is “did not inhibit NET formation”. Besides, the “NET formation in PMA-stimulated human PMNs” value in [4] is listed as “does not inhibit NET formation”.

“neonatal NET-Inhibitory Factor (KAVLTIDEKGTEAAGAMFLEAIPMSIPPEVKFNKPFVFLMIEQNTKSPLFMGKVVNPTQK; listed as Homo sapiens) [nNIF]”: the “NET formation by LPS-stimulated PMNs” value in [3] is recorded as “significantly inhibited NET formation”. The “NET formation by PMA-stimulated PMNs” value in test [5] is “significantly inhibited NET formation”. In test [6] (setting [10]), the “NET formation by histone H3 release assay of the peritoneal fluid” value is listed as “significant quantitative decrease” and the “NET formation in the peritoneal fluid (live cell imaging)” value is given as “qualitative decrease”. Also, the “Peritoneal membrane-associated NET formation” value in [6] (freshly resected peritoneal membrane, live cell imaging, standardized grid) is “qualitative and quantitative decrease”. The PMN chemotaxis entry in [7] is “did not significantly inhibit”. Further, in [8], the PMN phagocytosis entry is given as “did not significantly inhibit”. Moreover, the “Reactive oxygen species generation” value in test [9] was “did not significantly inhibit”.

B1: recombinant serpin B1: serine protease inhibitor expressed as a cytoplasmic protein by human PMNs (protein, UniProt P30740 1-379, looked up)
Leukocyte elastase inhibitor: MEQLSSANTRFALDLFLALSENNPAGNIFISPFSISSAMAMVFLGTRGNTAAQLSKTFHFNTVEEVHSRFQSLNADINKRGASYILKLANRLYGEKTYNFLPEFLVSTQKTYGADLASVDFQHASEDARKTINQWVKGQTEGKIPELLASGMVDNMTKLVLVNAIYFKGNWKDKFMKEATTNAPFRLNKKDRKTVKMMYQKKKFAYGYIEDLKCRVLELPYQGEELSMVILLPDDIEDESTGLKKIEEQLTLEKLHEWTKPENLDFIEVNVSLPRFKLEESYTLNSDLARLGVQDLFNSSKADLSGMSGARDIFISKIVHKSFVEVNEEGTEAAAATAGIATFCMLMPEENFTADHPFLFFIRHNSSGSILFLGRFSSP
For the molecule B1, in test [4], the “NET formation in PMA-stimulated human PMNs” value was “inhibits NET formation”.

The record behind these values is patent publication US10232023B2, “Methods for treatment of and prophylaxis against inflammatory disorders” (THE UNIVERSITY OF UTAH RESEARCH FOUNDATION, priority 2013, dated 2019).
